Assay results taken from ChEMBL document CHEMBL4507258 (2021).

Experiments:
[1] = molecular target: Cyclin-dependent kinase 5 (Homo sapiens) (UniProt Q00535); conditions: Compound concentration 1000.0 nM
[2] = molecular target: Calcium/calmodulin-dependent protein kinase type 1D (Homo sapiens) (UniProt Q8IU85); conditions: Compound concentration 1000.0 nM
[3] = molecular target: Serine/threonine-protein kinase PAK 1 (Homo sapiens) (UniProt Q13153); conditions: Compound concentration 1000.0 nM
[4] = molecular target: Tyrosine-protein kinase JAK1 (Homo sapiens) (UniProt P23458); conditions: Compound concentration 1000.0 nM
[5] = molecular target: Serine/threonine-protein kinase PLK2 (Homo sapiens) (UniProt Q9NYY3); conditions: Compound concentration 1000.0 nM
[6] = molecular target: Mitogen-activated protein kinase 15 (Homo sapiens) (UniProt Q8TD08); conditions: Compound concentration 1000.0 nM
[7] = test system: Epidermal growth factor receptor (Homo sapiens), P00533 [G719C]; conditions: Compound concentration 1000.0 nM
[8] = molecular target: Tyrosine-protein kinase JAK3 (Homo sapiens) (UniProt P52333); conditions: Compound concentration 1000.0 nM
[9] = molecular target: Serine/threonine-protein kinase B-raf (Homo sapiens) (UniProt P15056); conditions: Compound concentration 1000.0 nM
[10] = test system: Tyrosine-protein kinase ABL1 (Homo sapiens), P00519 [F317L]; conditions: Compound concentration 1000.0 nM
[11] = molecular target: Serine/threonine-protein kinase PLK3 (Homo sapiens) (UniProt Q9H4B4); conditions: Compound concentration 1000.0 nM
[12] = molecular target: Aurora kinase B (Homo sapiens) (UniProt Q96GD4); conditions: Compound concentration 1000.0 nM
[13] = molecular target: Activin receptor type-2B (Homo sapiens) (UniProt Q13705); conditions: Compound concentration 1000.0 nM
[14] = molecular target: Bone morphogenetic protein receptor type-2 (Homo sapiens) (UniProt Q13873); conditions: Compound concentration 1000.0 nM
[15] = molecular target: Serine/threonine-protein kinase WNK1 (Homo sapiens) (UniProt Q9H4A3); conditions: Compound concentration 1000.0 nM
[16] = molecular target: Serine/threonine-protein kinase MRCK gamma (Homo sapiens) (UniProt Q6DT37); conditions: Compound concentration 1000.0 nM
[17] = molecular target: Serine/threonine-protein kinase MAK (Homo sapiens) (UniProt P20794); conditions: Compound concentration 1000.0 nM
Serine/threonine-protein kinase MAK (Homo sapiens), sequence (P20794 whole entry): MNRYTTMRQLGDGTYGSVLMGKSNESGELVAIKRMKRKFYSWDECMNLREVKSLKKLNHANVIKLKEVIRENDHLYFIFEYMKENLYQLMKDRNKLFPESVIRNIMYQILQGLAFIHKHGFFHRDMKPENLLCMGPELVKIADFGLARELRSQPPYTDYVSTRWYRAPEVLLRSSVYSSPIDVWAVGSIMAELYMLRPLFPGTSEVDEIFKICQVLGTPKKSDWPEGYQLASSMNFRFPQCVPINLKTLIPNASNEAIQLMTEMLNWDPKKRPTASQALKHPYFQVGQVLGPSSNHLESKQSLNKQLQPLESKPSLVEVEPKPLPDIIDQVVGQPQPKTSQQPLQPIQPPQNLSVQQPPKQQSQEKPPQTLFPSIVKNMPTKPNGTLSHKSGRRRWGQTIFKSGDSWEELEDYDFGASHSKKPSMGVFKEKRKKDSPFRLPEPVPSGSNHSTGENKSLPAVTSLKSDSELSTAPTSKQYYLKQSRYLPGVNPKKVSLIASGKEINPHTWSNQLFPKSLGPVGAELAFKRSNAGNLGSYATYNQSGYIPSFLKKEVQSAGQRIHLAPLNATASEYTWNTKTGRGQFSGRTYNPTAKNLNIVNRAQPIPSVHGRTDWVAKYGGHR

[18] = molecular target: Serine/threonine-protein kinase Nek5 (Homo sapiens) (UniProt Q6P3R8); conditions: Compound concentration 1000.0 nM
[19] = molecular target: Serine/threonine-protein kinase TAO3 (Homo sapiens) (UniProt Q9H2K8); conditions: Compound concentration 1000.0 nM
[20] = molecular target: Myosin light chain kinase family member 4 (Homo sapiens) (UniProt Q86YV6); conditions: Compound concentration 1000.0 nM
[21] = molecular target: Mitogen-activated protein kinase kinase kinase kinase 2 (Homo sapiens) (UniProt Q12851); conditions: Compound concentration 1000.0 nM
[22] = molecular target: Serine/threonine-protein kinase SBK1 (Homo sapiens) (UniProt Q52WX2); conditions: Compound concentration 1000.0 nM
[23] = molecular target: Serine/threonine-protein kinase Nek10 (Homo sapiens) (UniProt Q6ZWH5); conditions: Compound concentration 1000.0 nM
[24] = molecular target: Fibroblast growth factor receptor 2 (Homo sapiens) (UniProt P21802); conditions: Compound concentration 1000.0 nM
Fibroblast growth factor receptor 2 (Homo sapiens), sequence (P21802 22-821 limits assumed): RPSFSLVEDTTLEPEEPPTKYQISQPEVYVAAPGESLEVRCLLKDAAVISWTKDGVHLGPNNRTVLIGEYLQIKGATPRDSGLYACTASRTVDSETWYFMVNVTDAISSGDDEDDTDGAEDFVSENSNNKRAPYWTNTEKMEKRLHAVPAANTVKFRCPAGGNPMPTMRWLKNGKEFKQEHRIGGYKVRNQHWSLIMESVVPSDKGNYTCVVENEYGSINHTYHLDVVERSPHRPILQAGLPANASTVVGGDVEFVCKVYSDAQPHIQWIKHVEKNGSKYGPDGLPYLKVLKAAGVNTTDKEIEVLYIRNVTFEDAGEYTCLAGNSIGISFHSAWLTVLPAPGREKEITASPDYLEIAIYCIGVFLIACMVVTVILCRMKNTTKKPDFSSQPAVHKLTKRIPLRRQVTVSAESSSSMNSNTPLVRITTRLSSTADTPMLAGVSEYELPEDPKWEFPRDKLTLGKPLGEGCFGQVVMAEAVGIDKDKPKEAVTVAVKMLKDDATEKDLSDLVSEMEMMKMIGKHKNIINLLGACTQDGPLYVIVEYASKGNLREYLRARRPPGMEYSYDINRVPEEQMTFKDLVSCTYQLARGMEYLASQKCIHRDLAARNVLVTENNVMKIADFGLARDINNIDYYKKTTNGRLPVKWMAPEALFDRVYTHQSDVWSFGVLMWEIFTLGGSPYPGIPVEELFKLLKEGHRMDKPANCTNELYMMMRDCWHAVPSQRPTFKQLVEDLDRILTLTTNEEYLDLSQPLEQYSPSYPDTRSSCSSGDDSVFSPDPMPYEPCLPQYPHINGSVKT

[25] = molecular target: T1, 5-hydroxytryptamine receptor 3A (Homo sapiens) (UniProt P46098); conditions: Compound concentration 10.0 uM
T1 sequence (whole entry): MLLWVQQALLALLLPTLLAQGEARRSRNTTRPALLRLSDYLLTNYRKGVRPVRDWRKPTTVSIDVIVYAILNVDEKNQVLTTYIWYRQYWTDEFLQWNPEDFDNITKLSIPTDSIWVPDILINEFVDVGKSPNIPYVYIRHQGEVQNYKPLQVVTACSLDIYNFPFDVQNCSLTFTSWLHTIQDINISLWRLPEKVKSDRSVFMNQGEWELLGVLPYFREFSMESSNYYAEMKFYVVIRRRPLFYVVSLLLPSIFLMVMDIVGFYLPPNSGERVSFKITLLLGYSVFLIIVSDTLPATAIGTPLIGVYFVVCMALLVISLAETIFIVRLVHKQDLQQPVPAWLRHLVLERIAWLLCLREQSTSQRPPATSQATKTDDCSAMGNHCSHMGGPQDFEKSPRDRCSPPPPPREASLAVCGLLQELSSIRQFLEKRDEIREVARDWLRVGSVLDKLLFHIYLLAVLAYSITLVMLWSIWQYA

[26] = molecular target: Casein kinase I isoform epsilon (Homo sapiens) (UniProt P49674); conditions: Compound concentration 1000.0 nM
[27] = test system: Epidermal growth factor receptor (Homo sapiens), P00533 [L858R,T790M]; conditions: Compound concentration 1000.0 nM
[28] = molecular target: High affinity nerve growth factor receptor (Homo sapiens) (UniProt P04629); conditions: Compound concentration 1000.0 nM
[29] = molecular target: Rho-associated protein kinase 2 (Homo sapiens) (UniProt O75116); conditions: Compound concentration 1000.0 nM
[30] = molecular target: Serine/threonine-protein kinase PAK 5 (Homo sapiens) (UniProt Q9P286); conditions: Compound concentration 1000.0 nM
[31] = molecular target: Serine/threonine-protein kinase 26 (Homo sapiens) (UniProt Q9P289); conditions: Compound concentration 1000.0 nM
Serine/threonine-protein kinase 26 (Homo sapiens), sequence (Q9P289 2-416 limits assumed): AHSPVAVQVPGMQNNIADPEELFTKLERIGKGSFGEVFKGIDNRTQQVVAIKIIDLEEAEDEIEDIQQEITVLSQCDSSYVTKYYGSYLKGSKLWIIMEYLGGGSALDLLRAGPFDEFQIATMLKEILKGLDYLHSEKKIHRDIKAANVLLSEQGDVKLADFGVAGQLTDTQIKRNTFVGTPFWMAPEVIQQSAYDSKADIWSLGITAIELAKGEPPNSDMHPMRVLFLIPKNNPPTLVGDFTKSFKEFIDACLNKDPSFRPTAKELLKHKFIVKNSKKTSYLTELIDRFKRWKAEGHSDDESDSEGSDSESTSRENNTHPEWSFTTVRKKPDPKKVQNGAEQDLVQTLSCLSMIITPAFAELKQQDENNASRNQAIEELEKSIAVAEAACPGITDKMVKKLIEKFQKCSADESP

[32] = test system: Mast/stem cell growth factor receptor Kit (Homo sapiens), P10721 [D816H]; conditions: Compound concentration 1000.0 nM
[33] = molecular target: Serine/threonine-protein kinase 16 (Homo sapiens) (UniProt O75716); conditions: Compound concentration 1000.0 nM
Serine/threonine-protein kinase 16 (Homo sapiens), sequence (O75716 whole entry): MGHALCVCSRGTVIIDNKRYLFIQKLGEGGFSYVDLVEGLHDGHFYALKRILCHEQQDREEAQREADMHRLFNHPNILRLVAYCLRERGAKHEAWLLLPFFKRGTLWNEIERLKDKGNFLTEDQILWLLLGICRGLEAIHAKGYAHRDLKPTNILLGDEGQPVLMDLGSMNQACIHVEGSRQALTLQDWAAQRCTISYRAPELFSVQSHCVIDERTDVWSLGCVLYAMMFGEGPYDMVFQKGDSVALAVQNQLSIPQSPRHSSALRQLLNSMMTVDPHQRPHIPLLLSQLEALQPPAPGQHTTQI

[34] = molecular target: Ribosomal protein S6 kinase alpha-3 (Homo sapiens) (UniProt P51812); conditions: Compound concentration 1000.0 nM
[35] = test system: Fibroblast growth factor receptor 3 (Homo sapiens), P22607 [G697C]; conditions: Compound concentration 1000.0 nM
Fibroblast growth factor receptor 3 (Homo sapiens), P22607 [G697C], sequence (P22607 whole entry G697C): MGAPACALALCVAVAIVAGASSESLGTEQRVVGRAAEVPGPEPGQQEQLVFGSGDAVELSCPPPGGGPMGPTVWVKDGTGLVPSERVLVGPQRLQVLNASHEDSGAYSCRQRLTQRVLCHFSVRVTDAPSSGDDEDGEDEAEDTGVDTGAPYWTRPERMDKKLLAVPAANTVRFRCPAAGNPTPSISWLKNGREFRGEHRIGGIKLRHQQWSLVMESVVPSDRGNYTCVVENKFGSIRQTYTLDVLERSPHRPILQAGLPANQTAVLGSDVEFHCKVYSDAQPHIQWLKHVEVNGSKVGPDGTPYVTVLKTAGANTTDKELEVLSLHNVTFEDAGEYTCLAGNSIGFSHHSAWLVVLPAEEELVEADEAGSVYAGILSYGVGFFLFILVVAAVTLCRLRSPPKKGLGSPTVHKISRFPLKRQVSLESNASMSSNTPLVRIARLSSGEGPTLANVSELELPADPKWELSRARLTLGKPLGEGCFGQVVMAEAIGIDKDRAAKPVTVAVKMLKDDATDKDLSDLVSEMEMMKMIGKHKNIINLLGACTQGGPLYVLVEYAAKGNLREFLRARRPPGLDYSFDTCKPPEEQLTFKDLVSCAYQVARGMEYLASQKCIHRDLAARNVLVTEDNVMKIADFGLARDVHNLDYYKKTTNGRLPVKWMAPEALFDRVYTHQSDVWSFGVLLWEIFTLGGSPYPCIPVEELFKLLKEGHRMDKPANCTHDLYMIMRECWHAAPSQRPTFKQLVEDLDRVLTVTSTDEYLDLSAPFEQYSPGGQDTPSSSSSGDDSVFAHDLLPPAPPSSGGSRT

[36] = molecular target: Cytoplasmic tyrosine-protein kinase BMX (Homo sapiens) (UniProt P51813); conditions: Compound concentration 1000.0 nM
Cytoplasmic tyrosine-protein kinase BMX (Homo sapiens), sequence (P51813 whole entry, canonical isoform): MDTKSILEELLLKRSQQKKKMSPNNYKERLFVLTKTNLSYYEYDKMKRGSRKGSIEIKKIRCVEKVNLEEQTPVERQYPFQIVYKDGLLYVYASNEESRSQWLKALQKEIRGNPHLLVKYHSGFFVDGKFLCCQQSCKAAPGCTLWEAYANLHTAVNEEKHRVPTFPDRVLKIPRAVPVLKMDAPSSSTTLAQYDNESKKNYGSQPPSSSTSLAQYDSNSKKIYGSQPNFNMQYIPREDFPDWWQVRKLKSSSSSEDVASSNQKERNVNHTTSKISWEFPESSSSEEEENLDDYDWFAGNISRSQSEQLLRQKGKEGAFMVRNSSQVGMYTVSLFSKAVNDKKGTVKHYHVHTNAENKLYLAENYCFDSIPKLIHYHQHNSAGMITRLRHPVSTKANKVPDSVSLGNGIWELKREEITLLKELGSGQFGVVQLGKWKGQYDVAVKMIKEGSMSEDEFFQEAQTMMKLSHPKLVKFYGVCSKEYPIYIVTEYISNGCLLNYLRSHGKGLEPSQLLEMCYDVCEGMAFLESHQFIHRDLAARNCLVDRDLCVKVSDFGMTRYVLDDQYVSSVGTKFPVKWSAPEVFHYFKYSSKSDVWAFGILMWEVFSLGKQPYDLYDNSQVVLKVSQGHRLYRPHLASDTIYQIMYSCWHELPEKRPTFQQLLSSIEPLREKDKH

[37] = test system: Phosphatidylinositol 4,5-bisphosphate 3-kinase catalytic subunit alpha isoform (Homo sapiens), P42336 [H1047Y]; conditions: Compound concentration 1000.0 nM
Phosphatidylinositol 4,5-bisphosphate 3-kinase catalytic subunit alpha isoform (Homo sapiens), P42336 [H1047Y], sequence (P42336 whole entry H1047Y, canonical isoform): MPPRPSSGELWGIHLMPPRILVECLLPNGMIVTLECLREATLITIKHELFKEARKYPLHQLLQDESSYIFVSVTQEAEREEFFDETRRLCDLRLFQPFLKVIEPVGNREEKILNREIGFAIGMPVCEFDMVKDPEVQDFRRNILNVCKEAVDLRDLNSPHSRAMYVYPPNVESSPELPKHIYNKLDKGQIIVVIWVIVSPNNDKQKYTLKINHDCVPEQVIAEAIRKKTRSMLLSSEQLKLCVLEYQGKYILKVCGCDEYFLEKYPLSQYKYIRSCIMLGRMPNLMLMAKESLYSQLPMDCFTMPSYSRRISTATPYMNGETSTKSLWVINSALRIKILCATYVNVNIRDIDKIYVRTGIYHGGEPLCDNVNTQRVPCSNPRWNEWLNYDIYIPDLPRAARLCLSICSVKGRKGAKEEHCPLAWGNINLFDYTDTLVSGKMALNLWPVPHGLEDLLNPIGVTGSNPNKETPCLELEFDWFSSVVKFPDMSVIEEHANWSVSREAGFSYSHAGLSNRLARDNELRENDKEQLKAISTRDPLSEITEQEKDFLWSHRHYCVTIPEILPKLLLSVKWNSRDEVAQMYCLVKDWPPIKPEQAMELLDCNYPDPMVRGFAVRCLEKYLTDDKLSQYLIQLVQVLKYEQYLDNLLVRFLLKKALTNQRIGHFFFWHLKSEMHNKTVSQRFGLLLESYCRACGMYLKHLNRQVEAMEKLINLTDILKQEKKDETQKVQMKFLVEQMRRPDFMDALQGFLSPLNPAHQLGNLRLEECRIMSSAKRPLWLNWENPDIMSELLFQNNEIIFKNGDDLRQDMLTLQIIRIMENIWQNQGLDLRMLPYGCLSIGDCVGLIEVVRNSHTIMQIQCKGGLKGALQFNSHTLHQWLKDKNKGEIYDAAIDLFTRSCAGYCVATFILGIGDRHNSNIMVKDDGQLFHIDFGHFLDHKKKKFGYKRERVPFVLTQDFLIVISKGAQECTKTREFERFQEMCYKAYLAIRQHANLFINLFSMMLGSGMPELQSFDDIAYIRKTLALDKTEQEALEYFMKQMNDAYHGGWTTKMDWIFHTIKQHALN

[38] = molecular target: Mitogen-activated protein kinase kinase kinase 12 (Homo sapiens) (UniProt Q12852); conditions: Compound concentration 1000.0 nM
[39] = molecular target: Death-associated protein kinase 3 (Homo sapiens, UniProt O43293); conditions: Compound concentration 1000.0 nM

Cyclin-dependent kinase 5 (Homo sapiens), sequence (Q00535 whole entry, looked up): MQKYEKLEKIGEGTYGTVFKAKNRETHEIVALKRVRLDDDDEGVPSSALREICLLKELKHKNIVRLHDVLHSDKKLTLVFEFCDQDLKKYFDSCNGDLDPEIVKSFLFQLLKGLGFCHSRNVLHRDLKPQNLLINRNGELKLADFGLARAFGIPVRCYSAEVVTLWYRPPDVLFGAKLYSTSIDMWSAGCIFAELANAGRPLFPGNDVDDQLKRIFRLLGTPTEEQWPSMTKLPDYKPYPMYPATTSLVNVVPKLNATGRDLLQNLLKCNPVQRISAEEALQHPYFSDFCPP

CCCCN(CCCC)C(=O)CN1C[C@@H](c2cc(OC)c3c(c2)OCO3)[C@H](C(=O)O)[C@H]1CC(C)(C)CCC [A-545]
inactive: residual activity [1] 97.7% | residual activity [2] 94.4% | residual activity [3] 95.9% | residual activity [4] 79% | residual activity [5] 98.4% | residual activity [6] 100% | residual activity [7] 100% | residual activity [8] 93.6% | residual activity [9] 92.3% | residual activity [10] 100% | residual activity [11] 93.5% | residual activity [12] 100% | residual activity [13] 85.1% | residual activity [14] 86.7% | residual activity [15] 96.8% | residual activity [16] 94.4% | residual activity [17] 100% | residual activity [18] 87.9% | residual activity [19] 67.9% | residual activity [20] 100% | residual activity [21] 100% | residual activity [22] 90.6% | residual activity [23] 100% | residual activity [24] 83.2% | inhibition [25] 2.23% | residual activity [26] 100% | residual activity [27] 100% | residual activity [28] 86.7% | residual activity [29] 100% | residual activity [30] 96.6% | residual activity [31] 100% | residual activity [32] 78.5% | residual activity [33] 100% | residual activity [34] 85.4% | residual activity [35] 94% | residual activity [36] 84.6% | residual activity [37] 92.6% | residual activity [38] 89.9% | residual activity [39] 100%

CCCCN(CCCC)C(=O)CN1C[C@H](c2cc(OC)c3c(c2)OCO3)[C@@H](C(=O)O)[C@@H]1CC(C)(C)CCC [ABT-546]
inactive: residual activity [1] 100% | residual activity [2] 100% | residual activity [3] 100% | residual activity [4] 98% | residual activity [5] 67.1% | residual activity [6] 100% | residual activity [7] 95.4% | residual activity [8] 71.3% | residual activity [9] 90.4% | residual activity [10] 100% | residual activity [11] 90.6% | residual activity [12] 100% | residual activity [13] 100% | residual activity [14] 80% | residual activity [15] 72.9% | residual activity [16] 100% | residual activity [17] 100% | residual activity [18] 100% | residual activity [19] 63.2% | residual activity [20] 99.1% | residual activity [21] 54.4% | residual activity [22] 76.5% | residual activity [23] 57.4% | residual activity [24] 100% | inhibition [25] 14.7% | residual activity [26] 100% | residual activity [27] 60.6% | residual activity [28] 61.2% | residual activity [29] 85.2% | residual activity [30] 93.8% | residual activity [31] 72.9% | residual activity [32] 67.3% | residual activity [33] 100% | residual activity [34] 54.9% | residual activity [35] 80.2% | residual activity [36] 100% | residual activity [37] 100% | residual activity [38] 72.1% | residual activity [39] 100%
